SMILES strings stand for the structures.

The nature of the data set: gradient 5% acetonitrile 3 min, to 50% in 2 min, to 85% in 15 min, held 3 min, 100 µL/min. The conditions noted are these: column: Zorbax Extend-C18 2.1 x 50 mm; eluents: water / acetonitrile, 0.1% formic acid. Put shortly: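 Retention times of pure standards were taken from adduct peaks that were selected by computer and manually inspected. Over 3 months, mixtures of ~100 molecules were run by HPLC–quadrupole time-of-flight mass spectrometry in positive and negative ionization mode. The Zorbax Extend-C18 column (2.1 × 50 mm, 1.8 μm) ran at 100 μL/min in water and acetonitrile, each containing 0.1% formic acid, with 40 μL dead volume and 900 μL dwell volume.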
The compound `N#CCn1cccc(S(=O)(=O)N2CCCCCC2)c1=O` had an RP-LC retention time of 737 s. In turn, `COC(=O)c1ccc(C(=O)OC)c(NC(=O)N2CCC(CN3CCC(C)CC3)CC2)c1` had an RP-LC retention time of 678 s. To `COc1cc(OC)c(NC(=O)Cn2ccn3nc(-c4ccccc4)c(CO)c3c2=O)cc1Cl` belongs 849 s; to `O=C(N[C@H](Cc1ccccc1)C(=O)NCc1cscn1)c1cccc(Cl)c1`, 806 s; to `COc1ccc(CN2C=C(C(=O)OCc3cc(=O)n4ccccc4n3)C(C)=NS2(=O)=O)cc1`, 1130 s. With `CCN(CC)c1ccc(NC(=O)C2CC(=O)N(c3cccc(NC(C)=O)c3)C2)c(C)c1` (centres undefined) the figure was 573 s; with `O=C(NCCn1c(-c2ccccc2)nc2cccnc21)Nc1ccc2c(c1)OCO2`, 722 s. Compound `CCn1cc(S(=O)(=O)N2CCC(Cc3nc(-c4ccncc4)n[nH]3)C2)cn1` (centres undefined) displayed an RP-LC retention time of 578 s. With `Cc1ccc(F)c(NC(=O)c2cc(C(C)C)n3nccc3n2)c1` the figure was 1250 s; with `Cc1cccc(CN2CCCn3nc(C(=O)NC(C)Cc4ccco4)cc3C2=O)c1` (centres undefined), 919 s; with `Cc1sc(C)c(S(=O)(=O)Nc2ccc3c(c2)OCCO3)c1-c1cc(C(F)(F)F)on1`, 1070 s. To `O=C(NCc1ccc(F)cc1F)c1csc(C(=O)NC2CCCC2)n1` belongs 895 s; to `O=C(c1ccc2ncnc(N3CCCC3)c2c1)N1CCN(c2ccccc2)CC1`, 646 s; to `COc1ccc(/C=C/C(=O)c2ccc(OC)cc2OC)cc1`, 1100 s. With `Brc1cncc(-c2nc(-c3cccc(-c4ccn[nH]4)c3)no2)c1` the figure was 954 s; with `N#CCc1nc(-c2cc3ccccc3o2)cs1`, 860 s; with `COc1ccc(-c2noc(C3CCCN3C(=O)Nc3cccc(C)c3C)n2)cc1` (centres undefined), 858 s.

On to `Cc1ccc(Cl)cc1NC(=O)N1CCCC(Cn2cnc3cccnc32)C1` (centres undefined), for which the RP-LC retention time stood at 709 s. To `COCCCNC(=O)N1CCCC1c1nc(-c2cccc(Cl)c2)no1` (centres undefined) belongs 853 s; to `COc1cc(-c2noc(Cn3nc4ccc(-c5ccccc5)nn4c3=O)n2)cc(OC)c1OC`, 862 s. To `Cc1ccc(CNC(=O)C2(C)CCCN(C(=O)Nc3cccc(Cl)c3C)C2)cc1` (centres undefined) belongs 1060 s; to `Cc1cc(N2CCN(S(=O)(=O)c3ccc(-c4ccccc4)cc3)CC2)nc(NC2CCCCC2)n1`, 970 s; to `CCn1c(=O)n(Cc2ccccc2C(F)(F)F)c2cncnc21`, 834 s. To `COCc1nc(C2CCN(S(=O)(=O)c3ccc4c(c3)CCC4)C2)no1` (centres undefined) belongs 928 s; to `COc1ccc(N2CCN(c3ccc(-c4nc(-c5cccc(F)c5)no4)cn3)CC2)cc1`, 1310 s.

`CC1CCN(c2ccc(-c3noc(CNC(=O)c4cccs4)n3)cc2)CC1` gave an RP-LC retention time of 993 s. To `CCn1cc(C)c(C(=O)O)c1CC(=O)NCc1ccc(C)cc1` belongs 772 s; to `CCOC(=O)c1ccc(NC(=O)c2cc(C)nn2-c2ccccc2)cc1`, 937 s. Regarding `Cc1ccc2c(Nc3ccc4c(c3)OCCO4)c(C(=O)N3CCCC(C)C3)cnc2n1` (centres undefined), the RP-LC retention time was found to be 645 s. With `COC(=O)c1ccc2c(=O)n(-c3ccccc3)c(N3CCCCC3)nc2c1` the figure was 1170 s; with `CCN1CCN(c2cc(C)c3cc(NC(=O)CC4CCCCC4)ccc3n2)CC1`, 594 s; with `CCOC(=O)c1cn(CC)c2cc(N3CCCC3)c(F)cc2c1=O`, 822 s. To `CCCc1c(C(=O)O)nnn1Cc1cccc(OC)c1` belongs 738 s; to `CC1Cc2ccccc2N1C(=O)c1coc(NC(=O)c2ccco2)n1` (centres undefined), 724 s; to `O=C(Cn1nc2c3ccc(F)cc3ncn2c1=O)Nc1ccc(Cl)cc1`, 760 s.

Turning to `CCn1c(=O)c(N2CCCC(C(=O)N3CCN(c4ccc(Cl)cc4)CC3)C2)nc2ccccc21` (centres undefined), the RP-LC retention time is 1230 s. With `Cn1nc(CNC(=O)c2ccc3c(c2)OCO3)c2ccccc21` the figure was 760 s; with `Cc1noc(C2CN(C(=O)NC3CCCC3)CC23CCOCC3)n1` (centres undefined), 633 s; with `O=C(Cn1c(=O)cc(-c2nc(C3CC3)no2)c2ccccc21)Nc1ccc2c(c1)OCO2`, 908 s. In turn, `Cc1cc(NC(=O)CN2C(=O)CN(C)C(=O)c3ccccc32)ccc1Br` showed an RP-LC retention time of 765 s. To `CCCn1cnc2cc(-c3noc(CNC(=O)c4ccc(C)cc4)n3)ccc21` belongs 687 s. With `O=C(C1CC1)N1c2ccccc2CC1c1nc(C2CC2)no1` (centres undefined) the figure was 908 s; with `CCc1cccc(NS(=O)(=O)c2cn(CC)c3ncccc23)c1`, 937 s. `CN(C)c1ccc(NC(=O)c2ccco2)cc1` yielded an RP-LC retention time of 532 s. For `O=C(Cc1nnc2cc(-c3nc(C4CC4)no3)ccn12)N1CCc2ccccc2C1`, the RP-LC retention time is 780 s. `CCOC(=O)c1c(CN2CCOCC2)n(C)c2ccc(O)cc12`: the RP-LC retention time worked out at 578 s. With `O=C(Nc1cc(-c2ccccn2)no1)c1cccc(C(F)(F)F)c1` the figure was 916 s. `CCOC(=O)CNC(=O)NCc1cccn1Cc1cccc(F)c1` displayed an RP-LC retention time of 810 s.

`CCCn1c(=O)sc2cc(S(=O)(=O)N3CCC(C(=O)N4CCOCC4)CC3)ccc21` showed an RP-LC retention time of 770 s. `CC(=O)c1ccc(NC(=O)C2CC(=O)N(c3ccc4c(c3)CCN4C(C)=O)C2)cc1` (centres undefined) returned an RP-LC retention time of 670 s.

`Cc1nc([C@@H]2CN(C(=O)c3cscn3)C[C@H]2C(N)=O)n[nH]1` came in with an RP-LC retention time of 533 s.

`COc1ccccc1NC(=O)Cc1csc2nc(-c3ccccc3)cn12` registered an RP-LC retention time of 786 s.

`CC(C)c1nncn1C1CCN(S(=O)(=O)Cc2cccc(Cl)c2)CC1` returned an RP-LC retention time of 736 s. With `COc1ccc(C2C(C(=O)Nc3cc(OC)ccc3OC)c3ccccc3C(=O)N2C)cc1` (centres undefined) the figure was 929 s; with `CCOc1ccccc1NC(=O)N1CCN(c2ccc(=O)n(-c3ccc(F)cc3)n2)CC1`, 875 s; with `COc1ccc(CN2C[C@@H]3C(=O)N(CCc4ccccc4)C(=O)[C@@H]3C2)c(OC)c1`, 728 s. To `CCOC(=O)c1c(C)c(C(=O)Nc2cc(Cl)ccc2OC)c(C)n1CC` belongs 1180 s. With `Cc1nnc2c(=O)n(CC(=O)N3CCN(c4ccccc4)CC3)c3cccnc3n12` the figure was 682 s; with `CCOc1ccc(N2CCn3c2nn(Cc2ccc(C(=O)OC)o2)c(=O)c3=O)cc1`, 731 s.

Values taken from the METLIN SMRT retention time set (Domingo-Almenara et al. 2019).
